The values below come from patent US20090035440A1, “Compositions comprising polyphenol” (Conopco, Inc. d/b/a Unilever, priority 2007, published 2009).

The nature of series [1]: Appearance of EGCG/complexing agent mixed systems (Example 1). The series is classed as physicochemical. Particulars: 0.6 wt % EGCG and 0.6 wt % CA. The procedure: (§1) Stock solutions containing 1.2 wt % EGCG were prepared by adding the powder to de-ionized water (conductivity=18.2 MΩ.cm) and stirring at 40° C. […] Stock solutions of pectin, were prepared by dissolving powder in de-ionized water at 80° C. for 1 hour and then cooling to 25° C. After dissolving the material, the pH of all samples, except for the WPI, was adjusted to 5.0 using 0.01 HCl or 0.1 M NaOH. The WPI was used at a pH of 6.5 to avoid precipitation of the whey proteins. In all cases the maximum ionic strength would remain below 10 mM. After setting the pH, mixed systems were prepared by quickly adding a fixed weight of the stock EGCG-solution into the same weight of complexing agent (CA)-solution under continuous stirring. Thus the final samples contained 0.6 wt % EGCG and 0.6 wt % CA.

The nature of series [2]: Dynamic light scattering particle size of EGCG/complexing agent mixed systems (Example 1). The class given is physicochemical. Conditions: 0.6 wt % EGCG and 0.6 wt % CA; DLS at 25° C., undiluted; volume-averaged; one value per peak where more than one peak. The procedure:
as §1
DLS measurements were performed within 4 hours after sample preparation using a Zetasizer Nano ZS instrument (Malvern Instruments, Malvern, UK). This instrument records intensity fluctuations of scattered light at a fixed angle from clear samples containing particles between 1 and 1000 nm in size. These fluctuations are converted into an autocorrelation function spanning time scales between picoseconds and seconds. The instrument software fits intensity- and volume-weighed size distributions to the recorded autocorrelations. Samples were measured without any dilution at 25° C. […]

The nature of series [3]: 1H-NMR estimate of non-complexed (free) EGCG in mixed systems with complexing agent. The series is classed as binding. Particulars: 0.6 wt % EGCG and 0.6 wt % CA in de-ionized water; pH 5.0 (WPI pH 6.5); 1H-NMR at 27° C. The procedure: as §1
Proton-NMR measurements were carried out on 0.6 ml samples in 5 mm NMR tubes at 27° C. using a Bruker AV600 NMR spectrometer. Prior to measurement, 5% (w/w) of D2O was added to each sample. The spectra were acquired with presaturation of the water signal using the Bruker pulse program: noesygppr1d. A signal at ˜4.7 ppm was from residual water and was ignored for data analysis purposes. […] This calibration curve was used to estimate the amount of non-complexed (or “free”) EGCG in the samples.

As for `O=C(O)[C@@H]1CCCN1` [L-proline], the Appearance entry in series [1] is “Transparent”. For the same molecule, the “Average Particle Size (nm)” value in series [2] was 2 nm. Also, in series [3], the “Amount of EGCG free in solution (wt % of total EGCG)” value is on record as 100 wt % of total EGCG.

As for poly-L-proline, in series [3], the “Amount of EGCG free in solution (wt % of total EGCG)” value is recorded as 0 wt % of total EGCG.
